{"source": "patent US9765061B2", "about": "“Trail enhancers for the selective killing of cancer cells” (The Scripps Research Institute, priority 2013, dated 2017)", "key": {"[1]": {"tested_on": "sXBP1 (UPR)", "test": "RT-PCR assay of spliced XBP1 mRNA (sXBP1) in macrophages", "type": "cell-based, mouse", "settings": "FIG. 1D and 1E", "source_text": "FIG. 1: C12 induces the UPR in mammalian cells. (A and B). Comparison of the macrophage responsiveness to P. aeruginosa (P.a.), S. typhimurium (S.t), and S. aureus (S.a.). RT-PCR assay of XBP1 (A) and Western blot analysis (B) of p38, its phosphorylated form (p-p38) as well as phosphorylated forms of PERK (p-PERK) and eIF2α (p-eIF2α) in cell extracts after treatment with bacteria are shown. (C) Macrophages were stimulated with P. aeruginosa wild type (wt) or lasI mutant (ΔlasI), and cell extracts (total RNA or total protein) were prepared and analyzed as in (A and B). […] (F) Total RNA was prepared from lung of mice after inoculation of vehicle (-) or (C12) and analyzed in (D). […]\nAmong key biochemical signatures of the multicomponent ER stress pathway, known as the unfolded protein response (UPR), are the phosphorylation of the α-subunit of eukaryotic translation initiation factor-2 (eIF2α) and activation of the transcription factor XBP1/Hac1 (X-box binding protein-1 in metazoans and homologous to ATF/CREB in yeast, respectively) ^11. […] To initiate our studies, we exposed bone marrow-derived macrophages (BMDM) to these bacteria, and macrophage responsiveness was analyzed for biochemical markers of the UPR and the phosphorylation of the mitogen-activated protein kinase p38, as a common marker of TLR pathways. […]"}, "[2]": {"tested_on": "HeLa cell line", "test": "PARP cleavage in HeLa cells", "type": "cell-based, human", "settings": "FIG. 3C", "procedure": "FIG. 3: Sensitivity of cancerous and non-cancerous cells to apoptosis induced by TNF, C12 or a combination of C12 and TNF. Cells were incubated with TNF, (C12) or a combination of TNF and (C12) as indicated, and the cleavage of PARP (an apoptotic marker) was determined by Western blot. (A and B) Breast cancer MCF-7 cells transfected with control vector (Vector) and vector expressing Bcl-2 or CLARP. (C) HeLa cell line. (D) Normal human bronchial epithelial cells (NHBE).\nSimilar experiments were conducted by using normal human bronchial epithelial cells and HeLa cell line as an example of transformed cells. We observed that both HeLa and normal cells were resistant to pro-apoptotic effects of TNF (FIG. 3C and 3D). […] In addition, two stimuli—C12 and TNF—work synergistically against cancerous cells, although normal cells stay intact.\nAntibodies and Western blot analysis. Anti-eIF2α, phospho-eIF2α[…](p-eIF2α), p38, p-p38 (Thr180/Tyr132), p-RelA (Ser536), p-I κB ? 32/36), PARP 20 antibodies were purchased from Cell Signaling; anti-RelA, I κB α, IκBβ were from Santa Cruz Biotechnology. Cellular extracts were prepared and analyzed by Western blot assay as previously described.^E3"}}, "data": [{"molecule": "CCCCCCCCCC(=O)CC(=O)N[C@H]1CCOC1=O", "note": "[Compound 1, N-(3-oxo-dodecanoyl) homoserine lactone]", "values": [{"measurement": "induction of sXBP1 / activation of the UPR", "setting": "[1]", "result": "time- and dose-dependent induction of sXBP1"}, {"measurement": "cleavage of PARP, compound alone", "setting": "[2]", "result": "induced the cleavage of PARP"}]}]}
